Measured values: US9040523B2, “Antifungal 5,6-dihydro-4H-pyrrolo[1,2-α][1,4]-benzodiazepines and 6H-pyrrolo[1,2-α][1,4]benzodiazepines substituted with benzene derivatives” (JANSSEN PHARMACEUTICA NV, priority 2010, dated 2015)
Where two headings read alike, the source gives them in different places.

Experiments:
[1] = test system: Sporothrix schenkii B62482; assay: Antifungal activity in vitro (resazurin susceptibility screen), Inf. A; format: cell-based; details: for IC50: Sporothrix
Procedure, shortened: (§1)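 Inoculum: 10^3 cfu/well from cryostocks diluted 1/1000 immediately prior to use. Drug plates were pre-spotted serial dilutions stored dark at 4 °C, ≤2 wk. Controls: fungus without antifungal (100%) and RPMI-MOPS blank (0%).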

[2] = test system: Microsporum canis B68128; assay: Antifungal activity in vitro (resazurin susceptibility screen), Inf. B; format: cell-based
Procedure, shortened: (§2)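 Each well was inoculated with 10^3 cfu of fungus onto dried, pre-spotted compound serial dilutions in RPMI-MOPS medium, with fungal growth read by resazurin. Growth was referenced to drug-free culture (100%) and medium-only (0%) controls on each plate.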

[3] = test system: Trichophyton rubrum B68183; assay: Antifungal activity in vitro (resazurin susceptibility screen), Inf. C; format: cell-based
Procedure, shortened: as §1

[4] = test system: Candida parapsilosis B66126; assay: Antifungal activity in vitro (resazurin susceptibility screen), Inf. D; format: cell-based
Procedure, shortened: as §2

[5] = test system: Aspergillus fumigatus B42928; assay: Antifungal activity in vitro (resazurin susceptibility screen), Inf. E; format: cell-based
Procedure, shortened: as §1

[6] = test system: Cryptococcus neoformans B66663; assay: Antifungal activity in vitro (resazurin susceptibility screen), Inf. F; format: cell-based; details: for IC50: Cryptococcus neoformans
Procedure, shortened: as §1

[7] = test system: Trichophyton mentagrophytes B70554; assay: Antifungal activity in vitro (resazurin susceptibility screen), Inf. G; format: cell-based; details: for IC50: Trichophyton mentagrophytes
Procedure, shortened: as §2

[8] = Liver metabolic stability assay, hLM; format: in vitro ADME, human; details: human liver microsomes, 1 mg protein/ml, 5 μM test compound, 15 min, 37 °C
Experimental: (§3) Liver preparations (microsomal fractions) were obtained from BD Gentest (San Jose, Calif., US). Metabolic stability was assessed using the following assay conditions. […] The mixture was pre-incubated at 37° C. for 5 min and the enzymatic reaction was started by addition of 5 μM test compound. After 0 (control) and 15 minutes (min), the reactions were terminated by addition of […] (500 μl). The precipitated material was removed by centrifugation at 1200 g for 10 min. The supernatant was analysed by LC-MS/MS on a ThermoFinnigan LCQ Deca XP ion-trap mass spectrometer equipped with an atmospheric pressure chemical ionisation source. Calculation of %-compound remaining was as described by Kantharaj et al. 2003 ((Kantharaj E., Tuytelaars A, Proost P E A, Ongel Z, van […] (2003). Simultaneous measurement of drug metabolic stability and identification of metabolites using ion-trap mass spectrometry.

[9] = Liver metabolic stability assay, mLM; format: in vitro ADME; details: mouse liver microsomes, 1 mg protein/ml, 5 μM test compound, 15 min, 37 °C
Experimental: as §3

[10] = Liver metabolic stability assay, gpLM; format: in vitro ADME, guinea pig
Experimental: as §3

[11] = target: CYP3A4 (Homo sapiens, UniProt P08684); assay: Cytochrome P450 inhibition, Protocol A, cDNA expressed proteins, fluorogenic substrates; format: in vitro ADME; details: % inhibition at 10 μM, cDNA expressed protein
Chain of CYP3A4 (P08684 whole entry): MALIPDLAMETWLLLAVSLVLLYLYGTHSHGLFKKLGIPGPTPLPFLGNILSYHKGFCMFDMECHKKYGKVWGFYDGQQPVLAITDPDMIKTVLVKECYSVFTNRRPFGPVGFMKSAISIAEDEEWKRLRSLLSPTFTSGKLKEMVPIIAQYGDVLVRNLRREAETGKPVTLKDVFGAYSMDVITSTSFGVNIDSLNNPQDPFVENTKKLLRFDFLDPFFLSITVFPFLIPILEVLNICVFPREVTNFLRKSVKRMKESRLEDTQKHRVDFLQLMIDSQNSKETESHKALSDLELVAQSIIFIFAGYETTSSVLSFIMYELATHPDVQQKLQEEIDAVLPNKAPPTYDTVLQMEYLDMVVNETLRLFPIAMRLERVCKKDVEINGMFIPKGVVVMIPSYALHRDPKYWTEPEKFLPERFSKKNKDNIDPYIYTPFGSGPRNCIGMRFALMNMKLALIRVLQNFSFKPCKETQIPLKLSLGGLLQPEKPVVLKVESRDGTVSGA
Experimental: (§4) All fluorogenic based assays were performed in Black Costar 96-well plates according to Crespi et al 1997 with minor modifications (Crespi C L, Miller V P & Penman B W (1997). Microtiter plate assays for inhibition of human, drug-metabolizing cytochromes P450. Anal. Biochem. Vol 248, 1898-1900). Assay conditions are outlined in Table 5a. For cytochrome P450 3A4, three different fluorogenic substrates were used. Each reaction mixture consisted of the appropriate concentration of enzyme, NADPH-generating system (“NADPH” means β-nicotinamide adenine dinucleotide phosphate, reduced), substrate in sodium/potassium buffer (pH 7.4). For each cytochrome P450 batch Michealis-Menten kinetics were determined using 11 concentrations.
(§5) Thereafter, further dilutions were made in acetonitrile. […] The compounds were serially diluted to give final concentrations ranging from 1 nM to 10 μM. The reaction mixtures, whereby 1 μL of buffer was replaced by compound solution, were pre-warmed for 5 min at 37° C. and the reaction was initiated by the addition of β-nicotinamide adenine dinucleotide phosphate (NADP+). Reactions were terminated by addition of stopping reagent and the fluorescence was measured using a Fluoroscan (Labsystems, Brussel, Belgium).
(§6) In Table 5a, the following abbreviations were used: 3-cyano-7-ethocycoumarin (CEC), 7-methoxy-4-trifluoromethylcoumarin (MFC), 3-[2-(N,N-diethyl-N-methylamino)ethyl]-7-methoxy-4-methylcoumarin (AMMC), 7-benzyloxy-trifluoromethyl coumarin (BFC), 7-benzyloxyquinoline (BQ) and dibenzyl fluorescein (DBF).

[12] = target: T1, CYP1A2 (Homo sapiens, UniProt P05177); assay: Cytochrome P450 inhibition, Protocol A, cDNA expressed proteins, fluorogenic substrate; format: in vitro ADME; details: % inhibition at 10 μM; substrate CEC; cDNA expressed protein
T1 sequence (P05177 1-516): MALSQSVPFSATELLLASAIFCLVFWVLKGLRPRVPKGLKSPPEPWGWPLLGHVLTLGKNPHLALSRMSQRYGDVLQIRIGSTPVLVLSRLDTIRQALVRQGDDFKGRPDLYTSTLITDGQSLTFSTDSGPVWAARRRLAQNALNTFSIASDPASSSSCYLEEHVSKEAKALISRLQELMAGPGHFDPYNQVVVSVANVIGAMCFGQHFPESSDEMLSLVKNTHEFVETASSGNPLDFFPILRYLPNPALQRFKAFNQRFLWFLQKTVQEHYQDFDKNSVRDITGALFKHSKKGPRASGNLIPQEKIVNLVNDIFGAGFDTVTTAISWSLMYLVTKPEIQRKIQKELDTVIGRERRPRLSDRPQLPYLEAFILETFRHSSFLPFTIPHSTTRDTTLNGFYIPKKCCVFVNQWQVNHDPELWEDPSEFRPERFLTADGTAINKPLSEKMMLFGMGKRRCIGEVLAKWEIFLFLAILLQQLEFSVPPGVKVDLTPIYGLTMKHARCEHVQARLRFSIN
Experimental: as §4, §5, §6

[13] = target: CYP2C9 (Homo sapiens, UniProt P11712); assay: as above; format: in vitro ADME; details: % inhibition at 10 μM; substrate MFC; cDNA expressed protein
Chain of CYP2C9 (P11712 whole entry): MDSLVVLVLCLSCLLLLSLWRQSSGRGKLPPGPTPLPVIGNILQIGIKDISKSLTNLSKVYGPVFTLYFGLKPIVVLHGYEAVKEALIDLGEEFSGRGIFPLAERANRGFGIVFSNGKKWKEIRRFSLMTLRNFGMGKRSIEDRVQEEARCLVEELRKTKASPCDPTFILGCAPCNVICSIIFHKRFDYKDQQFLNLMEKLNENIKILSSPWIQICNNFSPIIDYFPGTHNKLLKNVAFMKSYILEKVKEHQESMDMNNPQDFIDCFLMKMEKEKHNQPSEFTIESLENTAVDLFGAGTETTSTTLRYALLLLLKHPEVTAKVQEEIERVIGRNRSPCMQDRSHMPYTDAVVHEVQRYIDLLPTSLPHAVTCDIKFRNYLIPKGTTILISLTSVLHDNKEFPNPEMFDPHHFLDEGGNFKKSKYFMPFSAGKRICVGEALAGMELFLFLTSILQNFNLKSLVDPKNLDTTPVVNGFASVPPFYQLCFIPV
Experimental: as §4, §5, §6

[14] = target: CYP2D6 (Homo sapiens, UniProt P10635); assay: as above; format: in vitro ADME; details: % inhibition at 10 μM; substrate AMMC; cDNA expressed protein
Chain of CYP2D6 (P10635 whole entry): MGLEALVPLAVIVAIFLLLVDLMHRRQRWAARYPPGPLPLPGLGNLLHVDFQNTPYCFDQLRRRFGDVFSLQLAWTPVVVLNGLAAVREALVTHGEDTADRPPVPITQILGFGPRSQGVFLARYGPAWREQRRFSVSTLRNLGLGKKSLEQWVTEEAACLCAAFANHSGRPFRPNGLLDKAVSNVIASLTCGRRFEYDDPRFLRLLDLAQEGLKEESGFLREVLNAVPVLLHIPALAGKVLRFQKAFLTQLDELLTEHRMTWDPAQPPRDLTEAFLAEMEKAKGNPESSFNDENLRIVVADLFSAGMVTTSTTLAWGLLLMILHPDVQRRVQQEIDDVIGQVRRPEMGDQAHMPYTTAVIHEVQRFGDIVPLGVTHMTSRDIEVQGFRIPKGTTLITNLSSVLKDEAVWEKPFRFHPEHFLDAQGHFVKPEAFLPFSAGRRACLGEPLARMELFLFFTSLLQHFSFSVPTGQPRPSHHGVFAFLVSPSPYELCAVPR
Experimental: as §4, §5, §6

[15] = target: T2, Cytochrome P450 1A2 (Homo sapiens, UniProt P05177); assay: Human liver microsomal cytochrome P450 cocktail inhibition assay, Protocol C
T2 sequence (P05177 1-516): T1 sequence (P05177 1-516)
Experimental: (§7) Probe substrates and final assay concentrations with the appropriate internal standard are outlined in Table 6a.
(§8) Assays were performed in 0.1 M phosphate buffer (pH 7.4), containing 0.2 mg/ml human liver microsomes (BD Gentest) and a probe substrate mix consisting of: phenacetin, tolbutamide, S-mephenyloin, dextromethorphan, amodiaquine and midazolam (Table 6a) and a range of test compound concentrations (0 to 30 micromolar) in a total volume of 100 microliters. After a 10 min pre-incubation at 37° C., the reaction was started with addition of NADPH at a final concentration of 1.0 mM. […] The samples are centrifuged for 10 min at 4° C. at 4000 rpm and 60 microliters supernatant is diluted with 180 microliters water. Each sample is injected onto a UPLC/MS system for the simultaneous measurement of the probe substrate metabolites and their associated deuterated internal standards. Percentage inhibition is calculated according to: %-inhibition=(1−Ri/R)*100, whereby Ri and R are the metabolite to internal standard peak area ratios in the presence and absence of inhibitor respectively.
(§9) Percentage inhibition data are plotted against the Log transformed test compound concentration and after curve fitting the IC50-value is determined.

[16] = target: Cytochrome P450 2C19 (Homo sapiens, UniProt P33261); assay: as above; details: 2C19_S-Meph pIC50, human liver microsomes 0.2 mg/ml; probe S-mephenytoin 30 microM
Chain of Cytochrome P450 2C19 (P33261 whole entry): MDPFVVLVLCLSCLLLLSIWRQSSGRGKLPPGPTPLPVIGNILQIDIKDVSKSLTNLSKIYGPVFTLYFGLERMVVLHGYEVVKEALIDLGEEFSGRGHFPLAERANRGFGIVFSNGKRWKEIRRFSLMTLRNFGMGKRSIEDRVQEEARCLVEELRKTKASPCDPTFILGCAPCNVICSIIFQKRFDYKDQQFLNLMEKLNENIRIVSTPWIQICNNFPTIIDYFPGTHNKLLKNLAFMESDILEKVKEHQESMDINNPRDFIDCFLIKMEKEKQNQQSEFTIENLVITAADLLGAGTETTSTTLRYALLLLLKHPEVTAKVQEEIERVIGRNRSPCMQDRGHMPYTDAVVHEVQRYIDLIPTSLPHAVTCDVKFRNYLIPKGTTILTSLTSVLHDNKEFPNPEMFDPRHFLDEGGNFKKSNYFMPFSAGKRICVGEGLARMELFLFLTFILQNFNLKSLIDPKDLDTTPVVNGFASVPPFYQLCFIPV
Experimental: as §7, §8, §9

[17] = target: Cytochrome P450 2C9 (Homo sapiens, UniProt P11712); assay: as above; details: 2C9 Tolbut pIC50, human liver microsomes 0.2 mg/ml; probe tolbutamide 100 microM
Chain of Cytochrome P450 2C9 (P11712 whole entry): as the sequence (P11712 whole entry) above
Experimental: as §7, §8, §9

[18] = target: Cytochrome P450 2D6 (Homo sapiens, UniProt P10635); assay: as above; details: 2D6_Dextro pIC50, human liver microsomes 0.2 mg/ml; probe dextromethorphan 3 microM
Chain of Cytochrome P450 2D6 (P10635 whole entry): as the sequence (P10635 whole entry) above
Experimental: as §7, §8, §9

[19] = target: T3, Cytochrome P450 2C8 (Homo sapiens, UniProt P10632); assay: as above; format: in vitro ADME; details: human liver microsomes 0.2 mg/ml; probe amodiaquine 2 microM; read-out: 2C8_Amod pIC50 (converted)
T3 construct: tissue BD Gentest; host or cells: human liver microsomes
T3 sequence (P10632 1-490): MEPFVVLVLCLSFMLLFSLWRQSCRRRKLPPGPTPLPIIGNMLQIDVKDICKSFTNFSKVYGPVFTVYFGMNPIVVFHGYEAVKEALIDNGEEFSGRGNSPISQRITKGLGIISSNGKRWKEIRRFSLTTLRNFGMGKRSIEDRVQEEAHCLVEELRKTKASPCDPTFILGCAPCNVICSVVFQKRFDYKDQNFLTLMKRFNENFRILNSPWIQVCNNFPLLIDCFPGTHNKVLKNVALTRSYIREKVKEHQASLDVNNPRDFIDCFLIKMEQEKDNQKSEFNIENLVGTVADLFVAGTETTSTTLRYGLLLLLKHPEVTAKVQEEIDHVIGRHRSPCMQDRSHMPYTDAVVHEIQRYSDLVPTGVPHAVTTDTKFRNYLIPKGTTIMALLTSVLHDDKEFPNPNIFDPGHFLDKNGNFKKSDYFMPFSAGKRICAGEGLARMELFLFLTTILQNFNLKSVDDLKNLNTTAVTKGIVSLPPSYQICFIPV
Experimental: as §7, §8, §9

[20] = guinea pig microsomes, 1 mg protein/ml, 5 μM test compound, 15 min, 37 °C

## CC(O)c1ccc(C2NCc3c(Cl)cccc3-n3cccc32)cc1 (stereo not drawn) [Compound 1, 4-(7-chloro-5,6-dihydro-4H-pyrrolo[1,2-a][1,4]benzodiazepin-4-yl)-alpha-methyl-benzenemethanol]
[1]; B62482, read-out: Inf. A pIC50 (converted)
  IC50: > 63.1 µM
[2]; Microsporum canis, B68128, read-out: Inf. B pIC50 (converted)
  IC50: 3.16 µM
[3]; Trichophyton rubrum, B68183, read-out: Inf. C pIC50 (converted)
  IC50: 3160 nM
[4]; Lodderomyces parapsilosis, B66126, read-out: Inf. D pIC50 (converted)
  IC50: > 63.1 µM
[5]; Aspergillus fumigatus, B42928, read-out: Inf. E pIC50 (converted)
  IC50: > 63100 nM
[6]; B66663, read-out: Inf. F pIC50 (converted)
  IC50: 63.1 µM
[7]; B70554, read-out: Inf. G pIC50 (converted)
  IC50: 12.6 µM
[8]
  %-compound metabolised_Met_hLM: 43%
[9]
  %-compound metabolised Met_mLM: 51%
[10]; guinea pig, microsomes, 0.25 h, 5 μM, pH 7.4
  %-compound metabolised Met_gpLM: 86%
other
  melting point: 118.5 to 121.2 °C

## CC(=O)c1ccc(C2NCc3c(Cl)cccc3-n3cccc32)cc1.Cl (stereo not shown) [Compound 5, 1-[4-(7-chloro-5,6-dihydro-4H-pyrrolo[1,2-a][1,4]benzodiazepin-4-yl)phenyl]-ethanone .HCl]
[1]; B62482, Sporothrix schenkii B62482, 27 °C, 4 days, resa time 24 hours, highest in-test concentration 64 μM, read-out: Inf. A pIC50 (converted)
  IC50: 39.8 µM
[3]; Trichophyton rubrum B68183, 27 °C, 7 days, resa time 24 hours, read-out: Inf. C pIC50 (converted)
  IC50: 501 nM
[5]; Aspergillus fumigatus B42928, 27 °C, 48 hours, resa time 17 hours, read-out: Inf. E pIC50 (converted)
  IC50: 2000 nM
[6]; B66663, Cryptococcus neoformans B66663, 37 °C, 24 hours, resa time 4 hours, read-out: Inf. F pIC50 (converted)
  IC50: 25.1 µM
[7]; B70554, Trichophyton mentagrophytes B70554, 27 °C, 7 days, resa time 24 hours, read-out: Inf. G pIC50 (converted)
  IC50: 0.631 µM
[8]
  %-compound metabolised_Met_hLM: 59%
[9]
  %-compound metabolised Met_mLM: 72%
[10]; [20]
  %-compound metabolised Met_gpLM: 88%

## CC(=O)c1ccc(C2=NCc3c(ccc(Cl)c3Cl)-n3cccc32)cc1.Cl [Compound 21, 1-[4-(7,8-dichloro-6H-pyrrolo[1,2-a][1,4]benzodiazepin-4-yl)phenyl]-ethanone .HCl]
[1]; Sporothrix schenkii B62482, 27 °C, 4 days, resa time 24 hours, highest in-test concentration 64 μM
  Inf. A pIC50: <4.2
[2]; Microsporum canis B68128, 27 °C, 9 days, resa time 24 hours
  Inf. B pIC50: <4.2
[3]; Trichophyton rubrum B68183, 27 °C, 7 days, resa time 24 hours
  Inf. C pIC50: <4.2
[4]; Candida parapsilosis B66126, 37 °C, 24 hours, resa time 4 hours
  Inf. D pIC50: <4.2
[5]; Aspergillus fumigatus B42928, 27 °C, 48 hours, resa time 17 hours
  Inf. E pIC50: <4.2
[6]; Cryptococcus neoformans B66663, 37 °C, 24 hours, resa time 4 hours
  Inf. F pIC50: <4.2
[7]; Trichophyton mentagrophytes B70554, 27 °C, 7 days, resa time 24 hours
  Inf. G pIC50: <4.2
[8]
  %-compound metabolised_Met_hLM: 17%
[9]
  %-compound metabolised Met_mLM: 24%
[10]; [20]
  %-compound metabolised Met_gpLM: 64%
[11]; substrate BFC
  hCYP3A4_BFC_Pct_Inh: 0%
[11]; substrate BQ
  hCYP3A4_BQ_Pct_Inh: 26%
[11]; substrate DBF
  hCYP3A4_DBF_Pct_Inh: 26%
[12]
  hCYP1A2_CEC_Pct_Inh: 27%
[13]
  hCYP2C9_MFC_Pct_Inh: 54%
[14]
  hCYP2D6_AMMC_Pct_Inh: 39%

## CC(=O)c1ccc(C2NCc3ccc(Cl)cc3-n3cccc32)cc1 (stereo not shown) [drawing 101]
[15]
  IC50: > 10 µM
[16]
  IC50: 3.16 µM
[17]
  IC50: 6.31 µM
[18]
  IC50: 7.94 µM
[19]
  IC50: 7.94 µM
